Consider six compounds from PMC3537229 (European journal of pharmacology, 2012).

The structures appear in SMILES notation. Where two headings read alike, the source gives them in different places.

Series [1] concerns the target T1, NET (Rattus norvegicus, UniProt Q63380). As to conditions: percentage of maximal release response; ref Baumann et al. (2012b); cited from earlier work.
Series [2] addresses T2, SERT (Rattus norvegicus, UniProt P31652). As to conditions: percentage of maximal release response; ref Baumann et al. (2012b); cited from earlier work.
For series [3], the system named is mice. As to conditions: mice, 1, 3 or 10 mg/kg, i.p.; ref Robinson et al. (2012); cited from earlier work.
Series [4] concerns the target T3, DAT (Rattus norvegicus, UniProt P23977). In words: Inhibition of [3H]dopamine uptake in rat brain synaptosomes. It is filed as biochemical.
Series [5] addresses T1, NET. Put plainly: Inhibition of [3H]norepinephrine uptake in rat brain synaptosomes. It is filed as biochemical.
Series [6] concerns the target T2, SERT. Put plainly: Inhibition of [3H]serotonin uptake in rat brain synaptosomes. In kind it is biochemical.
Series [7] deals with T3, DAT. Put plainly: Release of [3H]MPP+ via DAT in rat brain synaptosomes. In kind it is biochemical.
The target of series [8] is T1, NET. In words: Release of [3H]MPP+ via NET in rat brain synaptosomes. In kind it is biochemical.
Series [9] addresses T2, SERT. Put plainly: Release of [3H]serotonin via SERT in rat brain synaptosomes. In kind it is biochemical.
Series [10] relates to rats. As to conditions: cited from earlier work.
Series [11] deals with T3, DAT. As to conditions: percentage of maximal release response; ref Baumann et al. (2012b); cited from earlier work.
In series [12] the test system is extracellular levels of dopamine and serotonin in rat nucleus accumbens. As to conditions: i.v. injection, 0.3 or 1.0 mg/kg; ref Baumann et al., 2012a; cited from earlier work.
The test system of series [13] is mice. As to conditions: ref Angoa-Perez et al., 2012, Lopez-Arnau et al., Marusich et al.; cited from earlier work.
Series [14] deals with mice. As to conditions: 30 mg/kg, i.p.; ref Lisek et al., 2012; cited from earlier work.
Series [15] relates to rats. As to conditions: 30 mg/kg, i.p.; ref Lisek et al., 2012; cited from earlier work.
For series [16] the following is noted: ref Kehr et al., 2011; cited from earlier work.

T2 sequence (P31652 whole entry): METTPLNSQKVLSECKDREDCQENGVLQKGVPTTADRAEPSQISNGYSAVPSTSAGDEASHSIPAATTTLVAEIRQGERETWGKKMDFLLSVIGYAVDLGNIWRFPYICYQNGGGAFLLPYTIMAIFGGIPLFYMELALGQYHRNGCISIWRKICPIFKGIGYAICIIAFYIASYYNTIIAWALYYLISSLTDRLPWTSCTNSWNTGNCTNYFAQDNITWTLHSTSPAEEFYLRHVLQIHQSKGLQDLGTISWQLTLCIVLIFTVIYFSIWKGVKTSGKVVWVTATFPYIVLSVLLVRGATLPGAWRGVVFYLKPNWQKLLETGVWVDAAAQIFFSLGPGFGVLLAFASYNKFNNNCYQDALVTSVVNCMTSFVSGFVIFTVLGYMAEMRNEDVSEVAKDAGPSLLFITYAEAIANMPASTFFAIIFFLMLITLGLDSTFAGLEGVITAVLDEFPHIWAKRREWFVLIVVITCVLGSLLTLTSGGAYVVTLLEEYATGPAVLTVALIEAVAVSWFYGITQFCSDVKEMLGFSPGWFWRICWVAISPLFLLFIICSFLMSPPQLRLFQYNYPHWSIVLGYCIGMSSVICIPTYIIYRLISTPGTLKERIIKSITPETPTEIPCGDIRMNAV
T3 sequence (P23977 whole entry): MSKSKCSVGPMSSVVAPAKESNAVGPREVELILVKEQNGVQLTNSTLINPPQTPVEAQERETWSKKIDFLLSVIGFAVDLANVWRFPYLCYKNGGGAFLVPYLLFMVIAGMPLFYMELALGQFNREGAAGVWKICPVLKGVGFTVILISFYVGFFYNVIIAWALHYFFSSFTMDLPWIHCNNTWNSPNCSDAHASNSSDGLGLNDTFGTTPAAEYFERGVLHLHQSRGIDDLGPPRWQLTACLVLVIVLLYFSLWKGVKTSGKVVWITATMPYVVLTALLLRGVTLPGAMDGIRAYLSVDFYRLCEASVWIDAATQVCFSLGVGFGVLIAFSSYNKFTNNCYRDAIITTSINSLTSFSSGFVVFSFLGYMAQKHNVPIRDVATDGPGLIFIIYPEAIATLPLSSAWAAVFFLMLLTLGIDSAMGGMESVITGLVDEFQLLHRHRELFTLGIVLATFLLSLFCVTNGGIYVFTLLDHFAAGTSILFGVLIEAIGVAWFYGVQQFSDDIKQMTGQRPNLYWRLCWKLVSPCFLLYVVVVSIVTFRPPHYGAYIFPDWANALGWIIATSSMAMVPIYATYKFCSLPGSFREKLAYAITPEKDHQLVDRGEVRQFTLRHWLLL
T1 sequence (Q63380 1-617): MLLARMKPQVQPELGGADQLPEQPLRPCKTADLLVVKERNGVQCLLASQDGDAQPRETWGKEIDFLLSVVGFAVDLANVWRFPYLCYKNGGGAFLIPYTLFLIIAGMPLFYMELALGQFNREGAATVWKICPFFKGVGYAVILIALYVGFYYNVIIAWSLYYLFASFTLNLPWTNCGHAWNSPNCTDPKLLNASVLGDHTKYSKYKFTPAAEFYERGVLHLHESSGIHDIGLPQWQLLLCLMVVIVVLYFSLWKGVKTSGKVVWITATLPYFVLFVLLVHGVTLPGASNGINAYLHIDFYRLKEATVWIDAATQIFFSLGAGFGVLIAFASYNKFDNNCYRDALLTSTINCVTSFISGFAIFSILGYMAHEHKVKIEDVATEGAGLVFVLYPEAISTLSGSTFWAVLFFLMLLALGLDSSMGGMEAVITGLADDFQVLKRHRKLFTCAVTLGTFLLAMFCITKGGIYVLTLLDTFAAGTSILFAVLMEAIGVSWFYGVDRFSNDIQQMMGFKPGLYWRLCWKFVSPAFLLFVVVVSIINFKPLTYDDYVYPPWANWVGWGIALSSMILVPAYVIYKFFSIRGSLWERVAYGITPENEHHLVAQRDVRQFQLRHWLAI

As for `CC(N)Cc1ccccc1` (centres unmarked) [Amphetamine], the “NET release Emax %” value on NET [1] is reported as 92 ± 1%. Besides, at SERT [2], the “SERT release Emax %” value is listed as 97 ± 2%.

As for `COC(=O)[C@H]1[C@@H](OC(=O)c2ccccc2)C[C@@H]2CC[C@H]1N2C` [Cocaine], the “Brain stimulation reward thresholds” value in the series on mice [3] was “this effect is mimicked by identical doses of cocaine”.

In the case of `CNC(C)Cc1ccc2c(c1)OCO2` (centres unmarked) [MDMA, 3,4-methylenedioxymethamphetamine], the half-maximal inhibitory concentration (IC50) (as a rule, the concentration at which inhibition is half-maximal) against DAT [4] worked out at 1010 ± 39 nM; against NET [5] it was 450 ± 30 nM; against SERT [6], 125 ± 11 nM. For the same compound, the EC50 – broadly, the concentration giving half of the maximal effect – on DAT [7] turned out to be 42 ± 2 nM; on NET [8] it was 53 ± 7 nM; at SERT [9] it was 39 ± 5 nM. Moreover, the figures for the maximal effect (Emax) at DAT [7] (read-out: DAT release Emax %), at NET [8] (read-out: NET release Emax %) and on SERT [9] (read-out: SERT release Emax %) were 100%, 95% and 103%, respectively.

Regarding `CCCC(C(=O)c1ccc2c(c1)OCO2)N1CCCC1` (centres unmarked) [MDPV, 3,4-methylenedioxypyrovalerone], the “Uptake blocking potency at DAT compared to cocaine (fold more potent)” value on DAT [4] (more potent than cocaine) is on record as 50 fold. Also, the “Uptake blocking potency at NET compared to cocaine (fold more potent)” value on NET [5] (more potent than cocaine) came to 10 fold. The “Uptake blocking potency at SERT compared to cocaine (fold less potent)” value on SERT [6] (less potent than cocaine) was found to be 10 fold. For the same compound, in the series on rats [10] (i.v., 0.05, 0.1 or 0.2 mg/kg, ref Watterson et al., 2012), the Self-administration by rats result is listed as “is readily self-administered by rats”. Also, the “Drug-taking behavior with extended access” value in the series on rats [10] (rats allowed extended access to the drug, ref Watterson et al., 2012) is “escalation of drug-taking behavior is observed”.

For the compound `CNC(C)C(=O)c1ccc(C)cc1` (centres unmarked) [Mephedrone, 4-methylmethcathinone], at DAT [11], the “DAT release Emax %” value is 102 ± 2%. Moreover, the “NET release Emax %” value on NET [1] was 99 ± 4%. Besides, on SERT [2], the “SERT release Emax %” value was 101 ± 1%. In addition, in series [12], the “Extracellular levels of dopamine and serotonin in rat nucleus accumbens” value was “increases extracellular levels of dopamine and serotonin”. Besides, in the series with mice [13], the “Locomotor stimulant effects in mice” value is “produces locomotor stimulant effects”. Further, the “Place preference in mice” value in the series on mice [14] is recorded as “engenders a positive place preference”. Further, in the series on rats [15], the “Place preference in rats” value is “engenders a positive place preference”. Also, the “Brain stimulation reward thresholds” value in the series on mice [3] is given as “lowers brain stimulation reward thresholds”. Moreover, in the series with rats [10] (i.v., 0.24 mg/infusion, ref Hadlock et al. (2011)), the Self-administration by rats result is “is self-administered by rats”. Moreover, the “Rate of clearance compared to MDMA” value in series [16] was “much faster rate of clearance when compared to MDMA”.

`CNC(C)C(=O)c1ccc2c(c1)OCO2` (centres unmarked) [Methylone, 3,4-methylenedioxymethcathinone]: the “SERT release Emax %” value on SERT [2] is given as 98 ± 2%. Besides, the “Extracellular levels of dopamine and serotonin in rat nucleus accumbens” value in [12] is “increases extracellular levels of dopamine and serotonin”.
